Assay results reported in PubChem BioAssay AID256 (DTP/NCI, 2004).
Several values for one entry are separate records, joined by “and”; a condition that tells them apart may be missing. Equal entries are not always repeated. Toxic doses and inconclusive results are not listed. The calls were made as follows: active = survival T/C of 150% or more; inactive = T/C below 125% in these data.

Test system: CD2F1 mice, L1210 leukemia ip, survival T/C
Assay: NCI In Vivo Anticancer Drug Screen. Data for tumor model L1210 Leukemia (intraperitoneal) in CD2F1 (CDF1) mice
Conditions: higher = longer survival
Summary of the method: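 Implant tumor; dose compound or vehicle; measure endpoint in both groups; report treated divided by control.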

[1] = endpoint: mean survival time, dose: 100.0 mg/kg/injection, schedule: Q04DX003 (ip), vehicle: saline with Tween-80
[2] = endpoint: mean survival time, dose: 200.0 mg/kg/injection, schedule: Q04DX003 (ip), vehicle: saline with Tween-80
[3] = endpoint: mean survival time, dose: 400.0 mg/kg/injection, schedule: Q04DX003 (ip), vehicle: saline with Tween-80
[4] = endpoint: mean survival time, dose: 50.0 mg/kg/injection, schedule: Q01DX009 (ip), vehicle: Klucel (hydroxypropylcellulose) (HPC)
[5] = endpoint: mean survival time, dose: 100.0 mg/kg/injection, schedule: Q01DX009 (ip), vehicle: Klucel (hydroxypropylcellulose) (HPC)
[6] = endpoint: mean survival time, dose: 200.0 mg/kg/injection, schedule: Q01DX009 (ip), vehicle: Klucel (hydroxypropylcellulose) (HPC)
[7] = endpoint: mean survival time, dose: 400.0 mg/kg/injection, schedule: Q01DX009 (ip), vehicle: Klucel (hydroxypropylcellulose) (HPC)
[8] = endpoint: mean survival time, dose: 50.0 mg/kg/injection, schedule: Q01DX009 (ip), vehicle: saline with Tween-80
[9] = endpoint: mean survival time, dose: 100.0 mg/kg/injection, schedule: Q01DX009 (ip), vehicle: saline with Tween-80
[10] = endpoint: mean survival time, dose: 200.0 mg/kg/injection, schedule: Q01DX009 (ip), vehicle: saline with Tween-80
[11] = endpoint: mean survival time, dose: 25.0 mg/kg/injection, schedule: Q01DX009 (ip), vehicle: saline with Tween-80
[12] = endpoint: mean survival time, dose: 100.0 mg/kg/injection, schedule: Q01DX001 (ip), vehicle: saline with Tween-80
[13] = endpoint: mean survival time, dose: 200.0 mg/kg/injection, schedule: Q01DX001 (ip), vehicle: saline with Tween-80
[14] = endpoint: mean survival time, dose: 100.0 mg/kg/injection, schedule: Q01DX001 (ip), vehicle: saline
[15] = endpoint: mean survival time, dose: 200.0 mg/kg/injection, schedule: Q01DX001 (ip), vehicle: saline
[16] = endpoint: mean survival time, dose: 12.5 mg/kg/injection, schedule: Q01DX009 (ip), vehicle: saline with Tween-80
[17] = endpoint: mean survival time, dose: 400.0 mg/kg/injection, schedule: Q01DX001 (ip), vehicle: saline
[18] = endpoint: mean survival time, dose: 400.0 mg/kg/injection, schedule: Q01DX009 (ip), vehicle: saline with Tween-80

Measured: T/C

[I][Pt+2][I].[NH-]c1ccccc1F.[NH-]c1ccccc1F
inactive: endpoint: mean survival time, dose: 3.13 mg/kg/injection, schedule: Q04DX003 (ip), vehicle: distilled water + Tween-80 98 % of control | endpoint: mean survival time, dose: 6.25 mg/kg/injection, schedule: Q04DX003 (ip), vehicle: distilled water + Tween-80 101 % of control | endpoint: mean survival time, dose: 12.5 mg/kg/injection, schedule: Q04DX003 (ip), vehicle: distilled water + Tween-80 98 % of control | endpoint: mean survival time, dose: 25.0 mg/kg/injection, schedule: Q04DX003 (ip), vehicle: distilled water + Tween-80 101 % of control | endpoint: mean survival time, dose: 50.0 mg/kg/injection, schedule: Q04DX003 (ip), vehicle: distilled water + Tween-80 102 % of control | endpoint: mean survival time, dose: 100.0 mg/kg/injection, schedule: Q04DX003 (ip), vehicle: distilled water + Tween-80 98 % of control | endpoint: mean survival time, dose: 200.0 mg/kg/injection, schedule: Q04DX003 (ip), vehicle: distilled water + Tween-80 101 % of control

[CH3][Sn]1([CH3])[O]C2C(CO)OC(n3cnc4c(N)ncnc43)C2[O]1 (stereo not drawn)
inactive: endpoint: mean survival time, dose: 12.5 mg/kg/injection, schedule: Q01DX005 (ip), vehicle: other 98 % of control | endpoint: mean survival time, dose: 25.0 mg/kg/injection, schedule: Q01DX005 (ip), vehicle: other 92 % of control | endpoint: mean survival time, dose: 50.0 mg/kg/injection, schedule: Q01DX005 (ip), vehicle: other 97 % of control

COC(=O)C(C)C1(O)CCCCC1 (stereo not drawn)
inactive: [1] 97 % of control | [2] 95 % of control | [3] 98 % of control

O=C1NC(c2ccccc2Cl)Nc2ccccc21 (stereo not drawn)
inactive: [4] 91 % of control | [5] 107 % of control | [6] 93 % of control | [7] 93 % of control

O=C(O)c1ccccc1SSc1ccccc1C(=O)O
inactive: [8] 89 % of control | [9] 101 % of control | [1] 102 % of control | [10] 95 % of control | [2] 104 % of control

Nc1ncnc2c1ncn2CCCl
inactive: [11] 102 % of control | endpoint: mean survival time, dose: 25.0 mg/kg/injection, schedule: Q04DX003 (ip), vehicle: saline with Tween-80 103 % of control | [8] 101 % of control | endpoint: mean survival time, dose: 50.0 mg/kg/injection, schedule: Q04DX003 (ip), vehicle: saline with Tween-80 96 % of control | [1] 97 % of control

OC1(c2ccccc2)c2cc(-c3ccccc3)c(-c3ccccc3)cc2C(c2ccccc2)(c2ccccc2)C1(O)c1ccccc1 (stereo not drawn)
inactive: endpoint: mean survival time, dose: 50.0 mg/kg/injection, schedule: Q01DX001 (ip), vehicle: saline with Tween-80 96 % of control | [12] 96 % of control | [13] 96 % of control

[O-][n+]1cccc2ccc3ccccc3c21
inactive: endpoint: mean survival time, dose: 50.0 mg/kg/injection, schedule: Q01DX009 (ip), vehicle: other 101 % of control | endpoint: mean survival time, dose: 100.0 mg/kg/injection, schedule: Q01DX009 (ip), vehicle: other 101 % of control

Cc1ccc([N+](=O)[O-])cc1NC(=O)Nc1c(C)n(C)n(-c2ccccc2)c1=O
inactive: [4] 93 % of control | [5] 89 % of control | [6] 93 % of control

N/N=C(\N)c1ccccc1
inactive: [14] 117 % of control | [15] 123 % of control

C[N+](C)(C)Cc1ccccc1
inactive: endpoint: mean survival time, dose: 3.13 mg/kg/injection, schedule: Q01DX009 (ip), vehicle: saline with Tween-80 97 % of control | endpoint: mean survival time, dose: 6.25 mg/kg/injection, schedule: Q01DX009 (ip), vehicle: saline with Tween-80 97 % of control | [16] 95 % of control | endpoint: mean survival time, dose: 12.5 mg/kg/injection, schedule: Q04DX003 (ip), vehicle: saline 104 % of control

CC(C)c1ccc2c(c1)CC[C@H]1[C@](C)(C#N)CCC[C@]21C
inactive: [9] 95 % of control | [10] 94 % of control

S=c1nc[nH]c2ccccc12
inactive: [12] 93 % of control | endpoint: mean survival time, dose: 100.0 mg/kg/injection, schedule: Q04DX002 (ip), vehicle: saline with Tween-80 91 % of control and 105 % of control | [1] 95 % of control and 97 % of control | [13] 94 % of control | endpoint: mean survival time, dose: 200.0 mg/kg/injection, schedule: Q04DX002 (ip), vehicle: saline with Tween-80 94 % of control and 102 % of control | [2] 86 % of control and 90 % of control | endpoint: mean survival time, dose: 400.0 mg/kg/injection, schedule: Q01DX001 (ip), vehicle: saline with Tween-80 88 % of control | endpoint: mean survival time, dose: 400.0 mg/kg/injection, schedule: Q04DX002 (ip), vehicle: saline with Tween-80 91 % of control and 98 % of control

C(=N/N=C(\C(=N\N=C\c1ccc2c(c1)CCC2)c1ccccc1)c1ccccc1)\c1ccc2c(c1)CCC2
inactive: [1] 96 % of control | [2] 89 % of control | [3] 87 % of control

CCCN(CCC)S(=O)(=O)c1ccc(NC(=O)OC2CCCCCC2)cc1
inactive: [14] 104 % of control | [15] 108 % of control | [17] 104 % of control

CC(C)(C)CC1(C)NC(=O)NC1=O (stereo not drawn)
inactive: [14] 100 % of control | [15] 97 % of control | [17] 100 % of control

CC12C(=O)C(C(c3ccccc3)=C1c1ccccc1)C(C(=O)O)C2C(=O)O (stereo not drawn)
inactive: [1] 89 % of control | [2] 93 % of control | [3] 101 % of control

CC(C)(C)CC(C)(C)c1ccc(OCCOc2ccc(C(=O)Nc3ccc(S(=O)(=O)Oc4ccccc4)cc3)cc2[N+](=O)[O-])cc1
inactive: [5] 101 % of control | [1] 98 % of control | [6] 106 % of control | [2] 93 % of control | [7] 95 % of control | [3] 92 % of control

CO/N=C(/c1ccccc1)c1cc[n+](C)cc1
inactive: endpoint: mean survival time, dose: 37.5 mg/kg/injection, schedule: Q04DX003 (ip), vehicle: saline 100 % of control | endpoint: mean survival time, dose: 75.0 mg/kg/injection, schedule: Q01DX001 (ip), vehicle: saline 95 % of control | endpoint: mean survival time, dose: 75.0 mg/kg/injection, schedule: Q04DX003 (ip), vehicle: saline 96 % of control | endpoint: mean survival time, dose: 150.0 mg/kg/injection, schedule: Q01DX001 (ip), vehicle: saline 100 % of control

COc1cccc(CN2CCN(N=O)CC2)c1
inactive: endpoint: mean survival time, dose: 12.5 mg/kg/injection, schedule: Q01DX009 (ip), vehicle: Klucel (hydroxypropylcellulose) (HPC) 98 % of control | endpoint: mean survival time, dose: 25.0 mg/kg/injection, schedule: Q01DX009 (ip), vehicle: Klucel (hydroxypropylcellulose) (HPC) 93 % of control | [4] 103 % of control | [5] 103 % of control | [6] 101 % of control | [7] 93 % of control

O=[N+]([O-])c1c[n+]([O-])ccc1Cl
inactive: endpoint: mean survival time, dose: 5.0 mg/kg/injection, schedule: Q01DX001 (ip), vehicle: saline 101 % of control | endpoint: mean survival time, dose: 10.0 mg/kg/injection, schedule: Q01DX001 (ip), vehicle: saline 103 % of control

Br/C(C=Nc1ccccc1)=C\Nc1ccccc1
inactive: [9] 102 % of control | [1] 101 % of control | [10] 86 % of control | [2] 108 % of control | [18] 86 % of control | [3] 108 % of control

COc1cc(OC)c(NC(=O)Oc2ccc(Br)cc2Br)cc1Cl
inactive: [16] 92 % of control | [11] 100 % of control | [8] 94 % of control and 107 % of control | [9] 94 % of control | [10] 90 % of control

COc1ccc(OC)c(NC(=O)Nc2ccc(NC(C)=O)cc2)c1
inactive: [9] 91 % of control | [10] 95 % of control | [18] 91 % of control

COc1ccc(OC)c(C)c1
inactive: [9] 105 % of control | [10] 107 % of control | [18] 104 % of control

O=C(O)CS (tested in a mixture with another compound)
inactive: endpoint: mean survival time, dose: 12.5 mg/kg/injection, schedule: Q01DX009 (ip), vehicle: saline 102 % of control | endpoint: mean survival time, dose: 25.0 mg/kg/injection, schedule: Q01DX009 (ip), vehicle: saline 93 % of control | endpoint: mean survival time, dose: 100.0 mg/kg/injection, schedule: Q01DX009 (ip), vehicle: saline 93 % of control

CCC(C(=O)O)C(=O)O.[NH-]CC1CCCC[N-]1.[Pt+2]
inactive: endpoint: mean survival time, dose: 3.13 mg/kg/injection, schedule: Q04DX003 (ip), vehicle: saline 98 % of control | endpoint: mean survival time, dose: 25.0 mg/kg/injection, schedule: Q04DX003 (ip), vehicle: saline 115 % of control | endpoint: mean survival time, dose: 50.0 mg/kg/injection, schedule: Q04DX003 (ip), vehicle: saline 124 % of control | endpoint: median survival time, dose: 200.0 mg/kg/injection, schedule: Q04DX003 (ip), vehicle: distilled water + Tween-80 103 % of control

CCN(CC)C(=O)Cc1ccc2c3c(cccc13)CC2
inactive: [1] 98 % of control | [2] 98 % of control | [3] 92 % of control
